# Entries after “also recorded” stand apart in the source; their conditions may differ.
# What was measured:
# Assay type in all cases: in vivo, mouse
# [1] = system: HCT-116 MTAP-deleted tumors; experiment: Efficacy of Compound A and Compound B in HCT-116 MTAP-deleted xenografts (Example 5); settings: for TGI (%) / Final TV (mean): Day 21; for Final TV (mean): initial TV 224
# Description: (§1) The effect of Compound A and Compound B (HCl salt was used) as single-agent anti-tumor agents and in combination was assessed in the HCT-116 human colon tumor cell line, MTAP isogenic pair (MTAP proficient (WT) or MTAP-deleted). Cells were expanded in DMEM/F12 GlutaMAX (Fisher Scientific, Catalog Number 10-565-018) with 10% fetal bovine serum. These cells were free of mycoplasma and authenticated as HCT-116 by STR profiling. Two and a half million cells in log growth phase were resuspended in Hanks Balanced Salt Solution containing 50% Matrigel and implanted subcutaneously into the flank of each recipient female nu/nu mouse. Mice were housed in microisolator cages with corn cob bedding with additional enrichment consisting of sterile nesting material (Innovive) and Bio-huts (Bio-Serv). Water (Innovive) and diet (Teklad Global 19% Protein Extruded Diet 2919, Irradiated) were provided ad libitum. The environment was maintained on a 12-hour light cycle at approximately 68-72° F. and 40-60% relative humidity.
# (§2) Tumor Volume (TV) was calculated using the following formula: TV (mm^3)=(width×width×length)/2. No dose holidays were provided for during the study and all mice were euthanized following the final dose on Day 21 (MTAP-deleted) or Day 15 (MTAP WT). Tumor growth inhibition (TGI) was calculated by [(TV controlfinal−TV treatedfinal)/(TV controlfinal−TV controlinitial)×100]. A TGI greater than 100% indicates tumor regressions. TV was analyzed for statistical significance utilizing GraphPad Prism version 9.1.0. Repeated Measures 2-Way ANOVA with Tukey's Multiple Comparisons was utilized, and P-values were presented from the final tumor measurement and were considered statistically significant if less than 0.05.
# (§3) Mean tumor volume at dosing start was approximately 224 mm^3, with seven mice randomized to each treatment group. In the HCT-116 MTAP-deleted tumor model, mice were dosed orally, twice per day (BID) with Vehicle, once per day (QD) with Compound A at 1 or 3 mg/kg, or BID with Compound B at 3, 10, or 30 mg/kg, or Compound A combined with Compound B at each dose level. In the HCT-116 WT tumor model, mice were dosed orally, with BID Vehicle, QD with Compound A at 3 mg/kg, or BID with Compound B at 10 or 30 mg/kg, or Compound A combined with Compound B. The Vehicle was 0.5% 400 cps methylcellulose with 0.5% Tween-80 in sterile water.
# HCT-116 MTAP WT tumors = experiment: Efficacy of Compound A and Compound B in HCT-116 MTAP WT xenografts (Example 5); settings: for TGI (%) / Final TV (mean): Day 15; for Final TV (mean): initial TV 228
# Description: as §1, §2, §3
# [2] = system: NCI-H838 MTAP-deleted xenografts; experiment: Efficacy of Compound A and Compound B in NCI-H838 NSCLC xenograft (Example 6); settings: for TGI (%): Study Day 25; for Final TV (mean): initial TV 140
# Description: (§4) The effect of Compound A and Compound B (HCl salt was used) as single-agent anti-tumor agents and in combination was assessed in the NCI-H838 human NSCLC tumor cell line, an endogenously MTAP-deleted cell line. Cells were expanded in RPMI with 10% fetal bovine serum. These cells were free of mycoplasma and authenticated by STR profiling. Ten million cells in log growth phase were resuspended in RPMI-1640 containing 50% Matrigel and implanted subcutaneously into the flank of each recipient female BALB/c nude mouse. The mice were be kept in laminar flow rooms at constant temperature and humidity with 3-5 mice in each cage. Animals were housed in polycarbonate cages maintained at a temperature of 23±3° C. and a relative humidity of 40% to 70%. The bedding material was soft wood, which was changed once per week. Water and diet were provided ad libitum.
# as §2, with “the study.” for “the study and all mice were euthanized following the final dose on Day 21 (MTAP-deleted) or Day 15 (MTAP WT).”, “the Study Day 25” for “the final”
# (§5) Mean tumor volume at dosing start was approximately 140 mm^3, with ten mice randomized to each treatment group, with the study consisting of eight treatment groups. Mice were dosed orally, twice per day (BID) with Vehicle, once per day (QD) with Compound A at 3 mg/kg, or BID with Compound B at 1, 10, or 30 mg/kg, or Compound A combined with Compound B at each dose level. The Vehicle was 0.5% 400 cps methylcellulose with 0.5% Tween-80 in sterile water.
# [3] = system: LU99 MTAP-deleted xenografts; experiment: Efficacy of Compound A and Compound B in LU99 NSCLC xenograft (Example 7); settings: for TGI (%) / Final TV (mean): Study Day 21
# Description: as §4, with “JCRB LU99” for “NCI-H838”
# as §2, with “study.” for “study and all mice were euthanized following the final dose on Day 21 (MTAP-deleted) or Day 15 (MTAP WT).”, “measurement on Study Day 21” for “measurement”
# as §5, with “141” for “140”
# [4] = HCT-116 MTAP WT model, over the dose levels tested
compound,measurement,setting,value
"Cn1ncc(-c2ccc3c(=O)[nH]nc(CN)c3c2)c1-c1c(F)cc2ccccc2c1C#N (atropisomer, axis not shown) [Compound B]",TGI (%),[1]; Compound B 3 mg/kg BID orally,29%
same,Final TV (mean),[1]; Compound B 3 mg/kg BID orally,1015 mm^3
same,TGI (%),[1]; Compound B 10 mg/kg BID orally,49%
same,Final TV (mean),[1]; Compound B 10 mg/kg BID orally,794 mm^3
same,TGI (%),[1]; Compound B 30 mg/kg BID orally,83%
same,Final TV (mean),[1]; Compound B 30 mg/kg BID orally,420 mm^3
same,anti-tumor activity (in words),HCT-116 MTAP WT tumors; Compound B 10 mg/kg BID,significantly enhanced tumor growth
same,TGI (%),HCT-116 MTAP WT tumors; Compound B 10 mg/kg BID orally,−52%
same,Final TV (mean),HCT-116 MTAP WT tumors; Compound B 10 mg/kg BID orally,1596 mm^3
same,TGI (%),HCT-116 MTAP WT tumors; Compound B 30 mg/kg BID orally,−27%
same,Final TV (mean),HCT-116 MTAP WT tumors; Compound B 30 mg/kg BID orally,1372 mm^3
same,anti-tumor activity (in words),HCT-116 MTAP WT tumors; [4],no single agent activity
same,TGI (%),[2]; Compound B 1 mg/kg BID orally,53%
same,Final TV (mean),[2]; Compound B 1 mg/kg BID orally,899 mm^3
same,TGI (%),[2]; Compound B 10 mg/kg BID orally,56%
same,Final TV (mean),[2]; Compound B 10 mg/kg BID orally,839 mm^3
same,TGI (%),[2]; Compound B 30 mg/kg BID orally,67%
same,Final TV (mean),[2]; Compound B 30 mg/kg BID orally,666 mm^3
same,TGI (%),[3]; Compound B 1 mg/kg BID orally,23%
same,Final TV (mean),"[3]; Compound B 1 mg/kg BID orally, initial TV 142",1765 mm^3
same,TGI (%),[3]; Compound B 10 mg/kg BID orally,74%
same,Final TV (mean),"[3]; Compound B 10 mg/kg BID orally, initial TV 142",683 mm^3
same,TGI (%),[3]; Compound B 30 mg/kg BID orally,90%
same,Final TV (mean),"[3]; Compound B 30 mg/kg BID orally, initial TV 141",353 mm^3
Nc1nc(=O)n(-c2ccccc2Cl)c2nc(C(F)(F)F)ccc12 [Compound A],TGI (%),[1]; Compound A 1 mg/kg QD orally,64%
same,Final TV (mean),[1]; Compound A 1 mg/kg QD orally,632 mm^3
same,TGI (%),[1]; Compound A 3 mg/kg QD orally,80%
same,Final TV (mean),[1]; Compound A 3 mg/kg QD orally,450 mm^3
same,anti-tumor activity (in words),"[1]; HCT-116 MTAP-deleted model, over the dose levels tested",statistically significant anti-tumor activity
same,TGI (%),HCT-116 MTAP WT tumors; Compound A 3 mg/kg QD orally,−9%
same,Final TV (mean),HCT-116 MTAP WT tumors; Compound A 3 mg/kg QD orally,1211 mm^3
same,anti-tumor activity (in words),HCT-116 MTAP WT tumors; [4],no tumor growth inhibition; also recorded: no single agent activity
same,TGI (%),[2]; Compound A 3 mg/kg QD orally,79%
same,Final TV (mean),[2]; Compound A 3 mg/kg QD orally,478 mm^3
same,anti-tumor activity (in words),"[2]; NCI-H838 model, over the dose levels tested",statistically significant anti-tumor activity
same,TGI (%),[3]; Compound A 3 mg/kg QD orally,43%
same,Final TV (mean),"[3]; Compound A 3 mg/kg QD orally, initial TV 142",1341 mm^3
same,anti-tumor activity (in words),"[3]; LU99 model, over the dose levels tested",statistically significant anti-tumor activity
